This assay concerns the target MNK2a (Homo sapiens (Human), UniProt Q9HBH9). As to the kind of experiment: MNK2a in vitro kinase assay (Assay 2), ADP-Glo. It counts as biochemical. The following applies: read-out: MNK2 IC50. Here is the method:
B. MNK2a In vitro Kinase Assay (Assay 2)
ASSAY SETUP: The inhibition of kinase activity of MNK2a was assessed using pre-activated GST-MNK2a. The white, 384-well OptiPlate F plates were purchased from PerkinElmer. The ADP-Glo Kinase Assay (including ultra pure ATP) was purchased from Promega (V9103). Activated MNK2a was obtained as described in WO2011/104340. […] ID No. 5 of WO 2011/104340 by the C-terminal —CONH2 group, was purchased from Thermo Fisher Scientific. All other materials were of highest grade commercially available. Compounds are tested in either serial dilutions or single dose concentrations. The compound stock solutions are 10 mM in 100% DMSO The serial compound dilutions are prepared in 100% DMSO followed by 1:27.3 intermediate dilution in assay buffer. The final DMSO concentration in assay will be <3%. In the 384-well plates 3 μl of test compound from the intermediate dilution is mixed with 4 μl of the activated MNK2 enzyme (final concentration of 10 nM) and 4 μl of the peptide (final concentration of 25 μM)/ultra pure ATP (final concentration of 20 μM), all dissolved in assay buffer. This step is followed by an incubation time of 90 min, then 10 μl of ADP Glo reagent are added, followed by 40 min of incubation. Then 20 μl of kinase detection reagent are admixed. The plates are sealed and after an incubation period of 30 min, the luminescence signal is measured in an Envision reader to determine the amount of produced ADP. All incubation steps are performed at room temperature. The assay buffer consists of 20 mM HEPES, 2 mM DTT, 0.01% BSA, 20 mM MgCl2 and 0.1% Pluronic F-127.
The luminescent signal generated is proportional to the ADP concentration produced and is correlated with activated MNK2 activity. The analysis of the data is performed by the calculation of the percentage of ATP consumption of activated MNK2 in the presence of the test compound compared to the consumption of ATP in the presence of activated MNK2 without compound. (RLU(sample)−RLU(low control))*100/(RLU(high value)−RLU(low control)) [RLU=relative luminescence units]
[…] values based on dose response curves are calculated with the AssayExplorer software.
Background: ADP-Glo turns the ADP formed in a reaction into a luminescent signal.
Sequence of MNK2a (Q9HBH9 whole entry): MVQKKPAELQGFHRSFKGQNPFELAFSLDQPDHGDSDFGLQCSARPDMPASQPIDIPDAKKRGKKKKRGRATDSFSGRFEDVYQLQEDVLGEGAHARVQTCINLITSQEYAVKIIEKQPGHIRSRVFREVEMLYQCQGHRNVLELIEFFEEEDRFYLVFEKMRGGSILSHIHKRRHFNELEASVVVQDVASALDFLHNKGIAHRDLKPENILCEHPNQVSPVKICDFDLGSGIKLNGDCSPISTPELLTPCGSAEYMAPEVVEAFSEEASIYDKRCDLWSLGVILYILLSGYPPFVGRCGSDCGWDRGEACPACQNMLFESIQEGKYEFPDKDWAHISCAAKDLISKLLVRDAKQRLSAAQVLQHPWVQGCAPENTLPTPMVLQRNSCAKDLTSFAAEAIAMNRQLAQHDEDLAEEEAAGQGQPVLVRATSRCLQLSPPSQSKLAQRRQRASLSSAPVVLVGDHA
For orientation: IC50 means the concentration that inhibits the measured activity by half. For the compound `Cc1cc(N=S2(=O)CCCC2)cc2ncnc(Nc3ccc(F)cc3O[C@H](C)C(=O)N3CCCC3)c12` [Example 4.006], the IC50 was found to be 5 nM.
For `Cc1cc(N=S2(=O)CCCC2)cc2ncnc(Nc3ccc(F)cc3O[C@H](C)C(=O)NCC#N)c12` [Example 4.007], the IC50 stood at 2 nM.
Take `Cc1cc(N=S(C)(C)=O)cc2ncnc(Nc3ccc(F)cc3O[C@H](C)C(=O)N3CCCC3)c12` [Example 4.016]: the 50% inhibitory concentration (IC50) came to 20 nM.
As for `CCN(CC)C(=O)[C@@H](C)Oc1cc(F)ccc1Nc1ncnc2cc(N=S3(=O)CCCC3)cc(C)c12` [Example 4.025], the figure is 3 nM; as for `Cc1cc(N=S2(=O)CCCC2)cc2ncnc(Nc3ccc(F)cc3O[C@H](C)C(=O)N(C)C3CCCC3)c12` [Example 4.026], 3 nM.
`Cc1cc(N=S(C)(C)=O)cc2ncnc(Nc3ccc(F)cc3O[C@H](C)C(=O)N3CC[S+]([O-])CC3)c12` [Example 4.030]: the IC50 is 11 nM.
With `CCCNC(=O)[C@@H](C)Oc1cc(F)ccc1Nc1ncnc2cc(N=S3(=O)CCCC3)cc(C)c12` [Example 4.033], the concentration for half-maximal inhibition (IC50) is 2 nM.
Turning to `Cc1cc(N=S(C)(C)=O)cc2ncnc(Nc3ccc(F)cc3O[C@H](C)C(=O)NCC(F)F)c12` [Example 4.036], the half-maximal inhibitory concentration (IC50) stood at 1 nM.
In the case of `Cc1cc(N=S(C)(C)=O)cc2ncnc(Nc3ccc(F)cc3O[C@H](C)C(=O)NCC#N)c12` [Example 4.039], the half-inhibitory concentration (IC50) stood at 1 nM.
As for `Cc1cc(N=S2(=O)CCCC2)cc2ncnc(Nc3ccc(F)cc3O[C@H](C)C(=O)NCC(F)F)c12` [Example 4.043], the figure is 2 nM; as for `Cc1cc(N=S(C)(C)=O)cc2ncnc(Nc3ccc(F)cc3O[C@H](C)C(=O)N3CCC(=O)CC3)c12` [Example 4.046], 15 nM.
Consider `Cc1cc(N=S(C)(C)=O)cc2ncnc(Nc3ccc(F)cc3O[C@H](C)C(=O)N3CCC3)c12` [Example 4.049], for which the IC50 stood at 19 nM.
To `CC#CCNC(=O)[C@@H](C)Oc1cc(F)ccc1Nc1ncnc2cc(N=S(C)(C)=O)cc(C)c12` [Example 4.066] belongs 9 nM; to `Cc1cc(N=S2(=O)CCCC2)cc2ncnc(Nc3ccc(F)cc3O[C@H](C)C(=O)N3CCC3)c12` [Example 4.070], 7 nM.
To `CC(C)NC(=O)[C@@H](C)Oc1cc(F)ccc1Nc1ncnc2cc(N=S(C)(C)=O)cc(Cl)c12` [Example 4.076] belongs 4 nM; to `C[C@@H](C#N)NC(=O)[C@@H](C)Oc1cc(Cl)ccc1Nc1ncnc2cc(N=S3(=O)CCC3)cc(F)c12` [Example 4.077], 2 nM; to `C[C@@H](Oc1cc(F)ccc1Nc1ncnc2cc(N=S(C)(C)=O)cc(Cl)c12)C(=O)NCCF` [Example 4.078], 2 nM.
To `Cc1cc(N=S2(=O)CCC2)cc2ncnc(Nc3ccc(Cl)cc3O[C@H](C)C(=O)N[C@@H](C)C(F)(F)F)c12` [Example 4.079] belongs 1 nM; to `C[C@@H](Oc1cc(F)ccc1Nc1ncnc2cc(N=S(C)(C)=O)cc(Cl)c12)C(=O)NCC(F)F` [Example 4.080], 2 nM.
Consider `Cc1cc(N=S2(=O)CCC2)cc2ncnc(Nc3ccc(F)cc3O[C@H](C)C(=O)NC(C)C)c12` [Example 4.081], for which the 50% inhibitory concentration (IC50) stood at 2 nM.
For `Cc1cc(N=S2(=O)CCC2)cc2ncnc(Nc3ccc(F)cc3O[C@H](C)C(=O)NC34CC(C3)C4)c12` [Example 4.082], the half-maximal inhibitory concentration (IC50) is 2 nM.
As for `CC(NC(=O)[C@@H](C)Oc1cc(F)ccc1Nc1ncnc2cc(N=S(C)(C)=O)cc(F)c12)C(F)F` (some centres unmarked) [Example 4.083], the figure is 8 nM; as for `C[C@@H](Oc1cc(F)ccc1Nc1ncnc2cc(N=S(C)(C)=O)cc(Cl)c12)C(=O)NCC#N` [Example 4.085], 2 nM; as for `C[C@@H](Oc1cc(F)ccc1Nc1ncnc2cc(N=S(C)(C)=O)cc(C(F)(F)F)c12)C(=O)NCC(F)(F)F` [Example 4.086], 2 nM.
On to `COc1cc(N=S2(=O)CCC2)cc2ncnc(Nc3ccc(Cl)cc3O[C@H](C)C(=O)NCC(F)(F)F)c12` [Example 4.087], for which the half-inhibitory concentration (IC50) worked out at 2 nM.
As for `Cc1cc(N=S2(=O)CCC2)cc2ncnc(Nc3ccc(F)cc3O[C@H](C)C(=O)NCCC(F)(F)F)c12` [Example 4.089], the figure is 1 nM.
In the case of `C[C@@H](Oc1cc(F)ccc1Nc1ncnc2cc(N=S3(=O)CCC3)cc(Cl)c12)C(=O)N[C@H](C)C(F)(F)F` [Example 4.090], the half-maximal inhibitory concentration (IC50) was 1 nM.
Take `C[C@@H](Oc1cc(F)ccc1Nc1ncnc2cc(N=S(C)(C)=O)cc(Cl)c12)C(=O)NCC(F)(F)F` [Example 4.091]: the IC50 stood at 1 nM.
For `Cc1cc(N=S(C)(C)=O)cc2ncnc(Nc3ccc(Cl)cc3O[C@H](C)C(=O)NCC(F)(F)F)c12` [Example 4.092], the IC50 was 2 nM.
As for `C[C@@H](C#N)NC(=O)[C@@H](C)Oc1cc(Cl)ccc1Nc1ncnc2cc(N=S3(=O)CCCC3)cc(F)c12` [Example 4.093], the IC50 was 1 nM.
Consider `Cc1cc(N=S2(=O)CCC2)cc2ncnc(Nc3ccc(Cl)nc3O[C@H](C)C(=O)N[C@@H](C)C(F)(F)F)c12` [Example 4.094], for which the half-maximal inhibitory concentration (IC50) is 1 nM.
On to `CCOc1cc(N=S2(=O)CCC2)cc2ncnc(Nc3ccc(Cl)cc3O[C@H](C)C(=O)N[C@@H](C)C#N)c12` [Example 4.095], for which the IC50 was found to be 2 nM.
Take `C[C@H](NC(=O)[C@@H](C)Oc1cc(F)ccc1Nc1ncnc2cc(N=S3(=O)CCC3)cc(Cl)c12)C(F)(F)F` [Example 4.096]: the IC50 came to 1 nM.
As to `C[C@@H](Oc1cc(F)ccc1Nc1ncnc2cc(N=S3(=O)CCC3)cc(F)c12)C(=O)NCC#N` [Example 4.097], the half-maximal inhibitory concentration (IC50) worked out at 1 nM.
To `COc1cc(N=S2(=O)CCC2)cc2ncnc(Nc3ccc(F)cc3O[C@H](C)C(=O)N[C@@H](C)C(F)(F)F)c12` [Example 4.098] belongs 4 nM.
For the compound `CC(C#N)NC(=O)[C@@H](C)Oc1cc(F)ccc1Nc1ncnc2cc(N=S3(=O)CCC3)cc(F)c12` (some centres unmarked) [Example 4.099], the concentration for half-maximal inhibition (IC50) was 2 nM.
Turning to `Cc1cc(N=S(C)(C)=O)cc2ncnc(Nc3ccc(F)cc3O[C@H](C)C(=O)NC(CF)CF)c12` [Example 4.101], the half-inhibitory concentration (IC50) worked out at 3 nM.
As for `C[C@@H](C#N)NC(=O)[C@@H](C)Oc1cc(F)ccc1Nc1ncnc2cc(N=S3(=O)CCC3)cc(C(F)F)c12` [Example 4.102], the figure is 2 nM; as for `Cc1cc(N=S2(=O)CCC2)cc2ncnc(Nc3ccc(F)cc3O[C@H](C)C(=O)NCC#N)c12` [Example 4.103], 1 nM.
As for `Cc1cc(N=S2(=O)CCCC2)cc2ncnc(Nc3ccc(F)cc3O[C@H](C)C(=O)NCCF)c12` [Example 4.105], the figure is 2 nM; as for `C[C@@H](C#N)NC(=O)[C@@H](C)Oc1cc(F)ccc1Nc1ncnc2cc(N=S3(=O)CCC3)cc(F)c12` [Example 4.106], 2 nM.
In the case of `Cc1cc(N=S2(=O)CCC2)cc2ncnc(Nc3ccc(F)cc3O[C@H](C)C(=O)NCCF)c12` [Example 4.107], the IC50 is 2 nM.
As to `Cc1cc(N=S2(=O)CCC2)cc2ncnc(Nc3ccc(F)cc3O[C@H](C)C(=O)NC(C)C(F)F)c12` (some centres unmarked) [Example 4.109], the 50% inhibitory concentration (IC50) was 2 nM.
For `C[C@@H](Oc1cc(F)ccc1Nc1ncnc2cc(N=S3(=O)CCC3)cc(C(F)F)c12)C(=O)NCC(F)(F)F` [Example 4.110], the IC50 was determined as 2 nM.
`Cc1cc(N=S2(=O)CCC2)cc2ncnc(Nc3ccc(Cl)cc3O[C@H](C)C(=O)NCC(F)F)c12` [Example 4.111]: the IC50 was 1 nM.
With `C[C@H](C#N)NC(=O)[C@@H](C)Oc1cc(F)ccc1Nc1ncnc2cc(N=S3(=O)CCC3)cc(Cl)c12` [Example 4.112], the IC50 worked out at 2 nM.
Regarding `C[C@H](C#N)NC(=O)[C@@H](C)Oc1cc(F)ccc1Nc1ncnc2cc(N=S3(=O)CCC3)cc(F)c12` [Example 4.113], the IC50 came to 1 nM.
As for `CC(C)NC(=O)[C@@H](C)Oc1cc(F)ccc1Nc1ncnc2cc(N=S3(=O)CCC3)cc(F)c12` [Example 4.114], the figure is 5 nM.
Take `COc1cc(N=S2(=O)CCC2)cc2ncnc(Nc3ccc(F)cc3O[C@H](C)C(=O)NCC#N)c12` [Example 4.115]: the concentration for half-maximal inhibition (IC50) was 2 nM.
Consider `Cc1cc(N=S2(=O)CCC2)cc2ncnc(Nc3ccc(F)cc3O[C@H](C)C(=O)NCCC(F)F)c12` [Example 4.116], for which the concentration for half-maximal inhibition (IC50) stood at 2 nM.
As for `C[C@@H](Oc1cc(F)ccc1Nc1ncnc2cc(N=S3(=O)CCC3)cc(F)c12)C(=O)NCCF` [Example 4.117], the figure is 3 nM.
For the compound `Cc1cc(N=S(C)(C)=O)cc2ncnc(Nc3ccc(F)cc3O[C@H](C)C(=O)NCC(F)(F)C(F)(F)F)c12` [Example 4.119], the 50% inhibitory concentration (IC50) worked out at 2 nM.
To `C[C@@H](Oc1cc(F)ccc1Nc1ncnc2cc(N=S(C)(C)=O)cc(Cl)c12)C(=O)NC(CF)CF` [Example 4.120] belongs 2 nM.

For the origin of these results see patent publication US9139577B2, “Sulfoximine substituted quinazolines for pharmaceutical compositions” (Boehringer Ingelheim International GmbH, priority 2013, dated 2015).
